Consider 23 molecules from patent US20090270350A1, “Pyridinone Pyrazole Urea and Pyrimidinone Pyrazole Urea Derivatives” (PFIZER INC., priority 2006, published 2009).

For the test, the target named is p38α (Homo sapiens, UniProt Q16539). Kind of test: p38α/MK2 cascade assay. Type of test: biochemical. Conditions: Table 2; same p38α/MK2 cascade assay; 40 minutes preincubation; read-out: p38a/MK2 Cascade 40 min Pre-Incuabtion (% Inhibition): IC50. Summed up: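 In a cascade format, p38α was preincubated 40 min with inhibitor (1000–0.05 nM) before adding 1 nM nonactive MK2 (54-400), 5 μM MgATP and 0.5 μM FITC-Hsp27 peptide. Reaction ran 60 min in HEPES pH 7.5 with MgCl2, DTT, 2% DMSO, then EDTA-quenched. Peptide phosphorylation was measured by Caliper mobility shift to give IC50.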
Sequence of p38α (Q16539 whole entry): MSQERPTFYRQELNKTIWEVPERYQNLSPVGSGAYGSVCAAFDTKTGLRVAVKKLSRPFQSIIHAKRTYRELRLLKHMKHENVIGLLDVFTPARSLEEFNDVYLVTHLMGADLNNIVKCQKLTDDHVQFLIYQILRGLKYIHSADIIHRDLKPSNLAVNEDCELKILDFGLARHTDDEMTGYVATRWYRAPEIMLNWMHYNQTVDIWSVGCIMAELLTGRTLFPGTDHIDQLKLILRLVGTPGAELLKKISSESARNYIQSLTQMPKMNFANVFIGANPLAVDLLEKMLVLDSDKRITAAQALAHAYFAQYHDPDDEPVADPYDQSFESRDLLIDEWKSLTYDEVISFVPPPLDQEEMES
For `COc1ccc(Cn2c(C)cc(OCc3ccccc3CNC(=O)Nc3cc(C(C)(C)C)nn3-c3cccc(Cl)c3)c(Br)c2=O)c(OC)c1` [Example 242, 1-[2-({[3-bromo-1-(2,4-dimethoxybenzyl)-6-methyl-2-oxo-1,2-dihydropyridin-4-yl]oxy}methyl)benzyl]-3-[3-tert-butyl-1-(3-chlorophenyl)-1H-pyrazol-5-yl]urea], the IC50 was 10.8 nM.
The figure for `COc1ccc(Cn2c(C)cc(OCc3ccccc3CNC(=O)Nc3cc(C(C)(C)C)nn3-c3ccccc3)c(C)c2=O)c(OC)c1` [Example 243, 1-(3-tert-butyl-1-phenyl-1H-pyrazol-5-yl)-3-[2-({[1-(2,4-dimethoxybenzyl)-3,6-dimethyl-2-oxo-1,2-dihydropyridin-4-yl]oxy}methyl)benzyl]urea] is 9.54 nM; for `COc1ccc(Cn2c(C)cc(OCc3ccccc3CNC(=O)Nc3cc(C(C)(C)C)nn3-c3ccc(F)cc3F)c(C)c2=O)c(OC)c1` [Example 244, 1-[3-tert-butyl-1-(2,4-difluorophenyl)-1H-pyrazol-5-yl]-3-[2-({[1-(2,4-dimethoxybenzyl)-3,6-dimethyl-2-oxo-1,2-dihydropyridin-4-yl]oxy}methyl)benzyl]urea] it is 13.7 nM.
In the case of `COc1ccc(Cn2c(C)cc(OCc3ccccc3CNC(=O)Nc3cc(C(C)(C)C)nn3-c3ccc(C)cc3)c(C)c2=O)c(OC)c1` [Example 245, 1-[3-tert-butyl-1-(4-methylphenyl)-1H-pyrazol-5-yl]-3-[2-({[1-(2,4-dimethoxybenzyl)-3,6-dimethyl-2-oxo-1,2-dihydropyridin-4-yl]oxy}methyl)benzyl]urea], the IC50 is 13.4 nM.
As to `COc1ccccc1Cn1c(C)cc(OCc2ccccc2CNC(=O)Nc2cc(C(C)(C)C)nn2-c2ccc(O)cc2)c(Cl)c1=O` [Example 246, 1-[3-tert-butyl-1-(4-hydroxyphenyl)-1H-pyrazol-5-yl]-3-[2-({[3-chloro-1-(2-methoxybenzyl)-6-methyl-2-oxo-1,2-dihydropyridin-4-yl]oxy}methyl)benzyl]urea], the IC50 was 10 nM.
With `COc1ccccc1Cn1c(C)cc(OCc2ccccc2CNC(=O)Nc2cc(C(C)(C)C)nn2-c2cccc(O)c2)c(Cl)c1=O` [Example 247, 1-[3-tert-butyl-1-(3-hydroxyphenyl)-1H-pyrazol-5-yl]-3-[2-({[3-chloro-1-(2-methoxybenzyl)-6-methyl-2-oxo-1,2-dihydropyridin-4-yl]oxy}methyl)benzyl]urea], the IC50 was 10.5 nM.
The figure for `COc1ccccc1Cn1c(C)cc(OCc2ccccc2CNC(=O)Nc2cc(C(C)(C)C)nn2-c2ccc(O)c(Cl)c2)c(Cl)c1=O` [Example 248, 1-[3-tert-butyl-1-(3-chloro-4-hydroxyphenyl)-1H-pyrazol-5-yl]-3-[2-({[3-chloro-1-(2-methoxybenzyl)-6-methyl-2-oxo-1,2-dihydropyridin-4-yl]oxy}methyl)benzyl]urea] is 15.1 nM; for `COc1ccc(Cn2c(C)cc(OCc3ccccc3CNC(=O)Nc3cc(C(C)(C)C)nn3-c3ccc(O)c(Cl)c3)c(C)c2=O)cc1C#N` [Example 249, 1-[3-tert-butyl-1-(3-chloro-4-hydroxyphenyl)-1H-pyrazol-5-yl]-3-[2-({[1-(3-cyano-4-methoxybenzyl)-3,6-dimethyl-2-oxo-1,2-dihydropyridin-4-yl]oxy}methyl)benzyl]urea] it is 9.6 nM; for `COc1ccc(Cn2c(C)cc(OCc3ccccc3CNC(=O)Nc3cc(C(C)(C)C)nn3-c3cccc(OCCO)c3)c(C)c2=O)cc1C#N` [Example 250, 1-{3-tert-butyl-1-[3-(2-hydroxyethoxy)phenyl]-1H-pyrazol-5-yl}-3-[2-({[1-(3-cyano-4-methoxybenzyl)-3,6-dimethyl-2-oxo-1,2-dihydropyridin-4-yl]oxy}methyl)benzyl]urea] it is 8.4 nM.
Turning to `COc1ccc(Cn2c(C)cc(OCc3ccccc3CNC(=O)Nc3cc(C(C)(C)C)nn3-c3ccc(Cl)c(O)c3)c(C)c2=O)cc1C#N` [Example 251, 1-[3-tert-butyl-1-(4-chloro-3-hydroxyphenyl)-1H-pyrazol-5-yl]-3-[2-({[1-(3-cyano-4-methoxybenzyl)-3,6-dimethyl-2-oxo-1,2-dihydropyridin-4-yl]oxy}methyl)benzyl]urea], the IC50 was found to be 8.4 nM.
For `COc1ccc(Cn2c(C)cc(OCc3ccccc3CNC(=O)Nc3cc(C(C)(C)C)nn3-c3cccc(O)c3)c(C)c2=O)cc1C#N` [Example 252, 1-[3-tert-butyl-1-(3-hydroxyphenyl)-1H-pyrazol-5-yl]-3-[2-({[1-(3-cyano-4-methoxybenzyl)-3,6-dimethyl-2-oxo-1,2-dihydro-pyridin-4-yl]oxy}methyl)benzyl]urea] the value was 6 nM; for `COc1ccc(Cn2c(C)cc(OCc3ccccc3CNC(=O)Nc3cc(C(C)(C)C)nn3-c3ccc(O)cc3)c(C)c2=O)cc1C#N` [Example 253, 1-[3-tert-butyl-1-(4-hydroxyphenyl)-1H-pyrazol-5-yl]-3-[2-({[1-(3-cyano-4-methoxybenzyl)-3,6-dimethyl-2-oxo-1,2-dihydropyridin-4-yl]oxy}methyl)benzyl]urea], 8.3 nM; for `COc1cc(Cn2c(C)cc(OCc3ccccc3CNC(=O)Nc3cc(C(C)(C)C)nn3-c3ccc(O)c(Cl)c3)c(Cl)c2=O)ccc1Cl` [Example 254, 1-[3-tert-butyl-1-(3-chloro-4-hydroxyphenyl)-1H-pyrazol-5-yl]-3-[2-({[3-chloro-1-(4-chloro-3-methoxybenzyl)-6-methyl-2-oxo-1,2-dihydropyridin-4-yl]oxy}methyl)benzyl]urea], 26.6 nM.
As for `COc1cc(Cn2c(C)cc(OCc3ccccc3CNC(=O)Nc3cc(C(C)(C)C)nn3-c3cccc(OCCO)c3)c(Cl)c2=O)ccc1Cl` [Example 255, 1-{3-tert-butyl-1-[3-(2-hydroxyethoxy)phenyl]-1H-pyrazol-5-yl}-3-[2-({[3-chloro-1-(4-chloro-3-methoxybenzyl)-6-methyl-2-oxo-1,2-dihydropyridin-4-yl]oxy}methyl)benzyl]urea], the IC50 was determined as 7.2 nM.
As for `COc1cc(Cn2c(C)cc(OCc3ccccc3CNC(=O)Nc3cc(C(C)(C)C)nn3-c3ccc(Cl)c(O)c3)c(Cl)c2=O)ccc1Cl` [Example 256, 1-[3-tert-butyl-1-(4-chloro-3-hydroxyphenyl)-1H-pyrazol-5-yl]-3-[2-({[3-chloro-1-(4-chloro-3-methoxybenzyl)-6-methyl-2-oxo-1,2-dihydropyridin-4-yl]oxy}methyl)benzyl]urea], the IC50 turned out to be 19.9 nM.
With `COc1ccc(Cn2c(C)cc(OCc3ccccc3CNC(=O)Nc3cc(C(C)(C)C)nn3-c3ccc(Cl)c(O)c3)c(Cl)c2=O)cc1` [Example 257, 1-[3-tert-butyl-1-(4-chloro-3-hydroxyphenyl)-1H-pyrazol-5-yl]-3-[2-({[3-chloro-1-(4-methoxybenzyl)-6-methyl-2-oxo-1,2-dihydro-pyridin-4-yl]oxy}methyl)benzyl]urea], the IC50 amounted to 4.7 nM.
`COc1cc(Cn2c(C)cc(OCc3ccccc3CNC(=O)Nc3cc(C(C)(C)C)nn3-c3ccc(O)cc3)c(Cl)c2=O)ccc1Cl` [Example 258, 1-[3-tert-butyl-1-(4-hydroxyphenyl)-1H-pyrazol-5-yl]-3-[2-({[3-chloro-1-(4-chloro-3-methoxybenzyl)-6-methyl-2-oxo-1,2-dihydropyridin-4-yl]oxy}methyl)benzyl]urea]: the IC50 amounted to 10.1 nM.
The figure for `COc1ccc(Cn2c(C)cc(OCc3ccccc3CNC(=O)Nc3cc(C(C)(C)C)nn3-c3cccc(O)c3)c(C)c2=O)cc1Cl` [Example 259, 1-[3-tert-butyl-1-(3-hydroxyphenyl)-1H-pyrazol-5-yl]-3-[2-({[1-(3-chloro-4-methoxybenzyl)-3,6-dimethyl-2-oxo-1,2-dihydro-pyridin-4-yl]oxy}methyl)benzyl]urea] is 9.2 nM; for `COc1ccc(Cn2c(C)cc(OCc3ccccc3CNC(=O)Nc3cc(C(C)(C)C)nn3-c3ccc(Cl)c(O)c3)c(C)c2=O)cc1Cl` [Example 260, 1-[3-tert-butyl-1-(4-chloro-3-hydroxyphenyl)-1H-pyrazol-5-yl]-3-[2-({[1-(3-chloro-4-methoxybenzyl)-3,6-dimethyl-2-oxo-1,2-dihydropyridin-4-yl]oxy}methyl)benzyl]urea] it is 15.4 nM.
The figure for `Cc1cc(OCc2ccccc2CNC(=O)Nc2cc(C(C)(C)C)nn2-c2ccc(O)c(Cl)c2)c(Cl)c(=O)n1Cc1cccc(CNC(=O)CO)c1` [Example 261, N-[3-({4-[(2-{[({[3-tert-butyl-1-(3-chloro-4-hydroxyphenyl)-1H-pyrazol-5-yl]amino}carbonyl)amino]methyl}benzyl)oxy]-3-chloro-6-methyl-2-oxopyridin-1(2H)-yl}methyl)benzyl]-2-hydroxyacetamide] is 8.9 nM.
Turning to `COc1ccccc1Cn1c(C)cc(OCc2ccccc2CNC(=O)Nc2cc(C(C)(C)C)nn2-c2ccc(Cl)c(O)c2)c(Cl)c1=O` [Example 262, 1-[3-tert-butyl-1-(4-chloro-3-hydroxyphenyl)-1H-pyrazol-5-yl]-3-[2-({[3-chloro-1-(2-methoxybenzyl)-6-methyl-2-oxo-1,2-dihydro-pyridin-4-yl]oxy}methyl)benzyl]urea], the IC50 turned out to be 84.3 nM.
For `COc1ccccc1Cn1c(C)cc(OCc2ccccc2CNC(=O)Nc2cc(C(C)(C)C)nn2-c2ccc(O)cc2)c(C)c1=O` [Example 263, 1-[3-tert-butyl-1-(4-hydroxyphenyl)-1H-pyrazol-5-yl]-3-[2-({[1-(2-methoxybenzyl)-3,6-dimethyl-2-oxo-1,2-dihydropyridin-4-yl]oxy}methyl)benzyl]urea] the value was 23.1 nM; for `COc1ccccc1Cn1c(C)cc(OCc2ccccc2CNC(=O)Nc2cc(C(C)(C)C)nn2-c2ccc(O)c(Cl)c2)c(C)c1=O` [Example 264, 1-[3-tert-butyl-1-(3-chloro-4-hydroxyphenyl)-1H-pyrazol-5-yl]-3-[2-({[1-(2-methoxybenzyl)-3,6-dimethyl-2-oxo-1,2-dihydro-pyridin-4-yl]oxy}methyl)benzyl]urea], 27.4 nM.
